Measurements reported in the NIST ThermoML archive (doi:10.1016/j.fluid.2007.07.066).

Test: mn = molality of the nth substance listed, in mol/kg
Settings: 101 kPa, Liquid; for speed of sound: Sing-around technique in a fixed-path interferometer; for molar conductivity: dip type immersion conductance cell

O=P([O-])([O-])O.[Na+].[Na+] [disodium hydrogen phosphate] + O
Settings	mass density [kg/m3]	molar conductivity [S·m2/mol]	speed of sound [m/s]
283.15 K, m1 = 0.007	1000.71	–	1449.3
283.15 K, m1 = 0.0104	1001.19	–	1450
283.15 K, m1 = 0.0141	1001.72	–	1450.8
283.15 K, m1 = 0.032	1004.23	–	1454.2
283.15 K, m1 = 0.0386	1005.14	–	1455.5
283.15 K, m1 = 0.0411	1005.5	–	1456
283.15 K, m1 = 0.0496	1006.7	–	1457.7
283.15 K, m1 = 0.0632	1008.57	–	1460.3
283.15 K, m1 = 0.0737	1010.03	–	1462.3
283.15 K, m1 = 0.1066	1014.53	–	1468.4
283.15 K, m1 = 0.181	1024.58	–	1481.8
283.15 K, m1 = 0.2454	1033.1	–	1493.2
283.15 K, m1 = 0.2498	1033.68	–	1493.8
283.15 K, m1 = 0.2939	1039.48	–	1501.6
283.15 K, m1 = 0.3192	1042.77	–	1506
283.15 K, m1 = 0.3723	1049.55	–	1514.9
283.15 K, m1 = 0.4483	1059.19	–	1527.7
283.15 K, m1 = 0.6185	1080.36	–	1555.7
283.15 K, m1 = 0.7841	1100.26	–	1582.3
288.15 K, m1 = 0.007	1000.1	–	1467.6
288.15 K, m1 = 0.0104	1000.57	–	1468.3
288.15 K, m1 = 0.0141	1001.09	–	1469
288.15 K, m1 = 0.032	1003.56	–	1472.3
288.15 K, m1 = 0.0386	1004.46	–	1473.6
288.15 K, m1 = 0.0411	1004.81	–	1474.1
288.15 K, m1 = 0.0496	1006	–	1475.7
288.15 K, m1 = 0.0632	1007.85	–	1478.2
288.15 K, m1 = 0.0737	1009.28	–	1480.1
288.15 K, m1 = 0.1066	1013.73	–	1486
288.15 K, m1 = 0.181	1023.64	–	1499.1
288.15 K, m1 = 0.2454	1032.07	–	1510.1
288.15 K, m1 = 0.2498	1032.64	–	1510.8
288.15 K, m1 = 0.2939	1038.38	–	1518.3
288.15 K, m1 = 0.3192	1041.64	–	1522.6
288.15 K, m1 = 0.3723	1048.34	–	1531.2
288.15 K, m1 = 0.4483	1057.89	–	1543.6
288.15 K, m1 = 0.6185	1078.87	–	1570.8
288.15 K, m1 = 0.7841	1098.62	–	1596.7
293.15 K, m1 = 0.007	999.185	–	1483.8
293.15 K, m1 = 0.0104	999.653	–	1484.5
293.15 K, m1 = 0.0141	1000.17	–	1485.2
293.15 K, m1 = 0.032	1002.61	–	1488.4
293.15 K, m1 = 0.0386	1003.49	–	1489.6
293.15 K, m1 = 0.0411	1003.85	–	1490.1
293.15 K, m1 = 0.0496	1005.01	–	1491.7
293.15 K, m1 = 0.0632	1006.84	–	1494.1
293.15 K, m1 = 0.0737	1008.26	–	1495.9
293.15 K, m1 = 0.1066	1012.65	–	1501.7
293.15 K, m1 = 0.181	1022.47	–	1514.3
293.15 K, m1 = 0.2454	1030.81	–	1525
293.15 K, m1 = 0.2498	1031.37	–	1525.7
293.15 K, m1 = 0.2939	1037.06	–	1533
293.15 K, m1 = 0.3192	1040.28	–	1537.1
293.15 K, m1 = 0.3723	1046.93	–	1545.5
293.15 K, m1 = 0.4483	1056.39	–	1557.6
293.15 K, m1 = 0.6185	1077.21	–	1584
293.15 K, m1 = 0.7841	1096.81	–	1609.1
298.15 K, m1 = 0.0049	–	0.01921	–
298.15 K, m1 = 0.007	998.012	–	1498
298.15 K, m1 = 0.0104	998.476	0.01802	1498.7
298.15 K, m1 = 0.0141	998.988	–	1499.3
298.15 K, m1 = 0.0154	–	0.01735	–
298.15 K, m1 = 0.0211	–	0.0167	–
298.15 K, m1 = 0.032	1001.4	–	1502.5
298.15 K, m1 = 0.0386	1002.28	–	1503.7
298.15 K, m1 = 0.0411	1002.63	–	1504.1
298.15 K, m1 = 0.0413	–	0.01534	–
298.15 K, m1 = 0.0496	1003.78	–	1505.6
298.15 K, m1 = 0.0632	1005.6	–	1508
298.15 K, m1 = 0.0712	–	0.014	–
298.15 K, m1 = 0.0737	1007	–	1509.8
298.15 K, m1 = 0.1066	1011.35	0.01306	1515.3
298.15 K, m1 = 0.1437	–	0.01234	–
298.15 K, m1 = 0.181	1021.07	–	1527.7
298.15 K, m1 = 0.1927	–	0.0116	–
298.15 K, m1 = 0.2454	1029.34	–	1538
298.15 K, m1 = 0.2475	–	0.011	–
298.15 K, m1 = 0.2498	1029.9	–	1538.6
298.15 K, m1 = 0.2939	1035.53	–	1545.8
298.15 K, m1 = 0.3192	1038.73	–	1549.8
298.15 K, m1 = 0.3697	–	0.00986	–
298.15 K, m1 = 0.3723	1045.32	–	1558
298.15 K, m1 = 0.4438	–	0.009224	–
298.15 K, m1 = 0.4483	1054.71	–	1569.7
298.15 K, m1 = 0.5295	–	0.008621	–
298.15 K, m1 = 0.6125	–	0.00816	–
298.15 K, m1 = 0.6185	1075.38	–	1595.4
298.15 K, m1 = 0.6768	–	0.00778	–
298.15 K, m1 = 0.7479	–	0.007445	–
298.15 K, m1 = 0.7841	1094.86	–	1619.8
298.15 K, m1 = 0.8346	–	0.00706	–
298.15 K, m1 = 0.9695	–	0.006536	–
303.15 K, m1 = 0.007	996.606	–	1510.4
303.15 K, m1 = 0.0104	997.065	–	1511
303.15 K, m1 = 0.0141	997.573	–	1511.7
303.15 K, m1 = 0.032	999.963	–	1514.7
303.15 K, m1 = 0.0386	1000.84	–	1515.9
303.15 K, m1 = 0.0411	1001.18	–	1516.3
303.15 K, m1 = 0.0496	1002.33	–	1517.8
303.15 K, m1 = 0.0632	1004.12	–	1520.1
303.15 K, m1 = 0.0737	1005.51	–	1521.8
303.15 K, m1 = 0.1066	1009.83	–	1527.2
303.15 K, m1 = 0.181	1019.47	–	1539.2
303.15 K, m1 = 0.2454	1027.67	–	1549.2
303.15 K, m1 = 0.2498	1028.22	–	1549.9
303.15 K, m1 = 0.2939	1033.82	–	1556.8
303.15 K, m1 = 0.3192	1036.99	–	1560.7
303.15 K, m1 = 0.3723	1043.54	–	1568.7
303.15 K, m1 = 0.4483	1052.87	–	1580.1
303.15 K, m1 = 0.6185	1073.41	–	1605.1
303.15 K, m1 = 0.7841	1092.78	–	1628.8
